For 32 compounds, IC50 and Ki results are on record in patent publication US9682967B2.

This assay concerns the target hSortilin (Homo sapiens (Human), UniProt Q99523). In words: hSortilin affinity assay (displacement of 3H-neurotensin, SPA). The format is binding. Particulars: for IC50: [3H]-Neurotensin 5 nM, 150 nM 6his-Sortilin, read-out: hSortilin NTS Binding IC50; for Ki: from IC50 by Cheng-Prusoff, Kd neurotensin 100 nM.

Chain of hSortilin (Q99523 34-755): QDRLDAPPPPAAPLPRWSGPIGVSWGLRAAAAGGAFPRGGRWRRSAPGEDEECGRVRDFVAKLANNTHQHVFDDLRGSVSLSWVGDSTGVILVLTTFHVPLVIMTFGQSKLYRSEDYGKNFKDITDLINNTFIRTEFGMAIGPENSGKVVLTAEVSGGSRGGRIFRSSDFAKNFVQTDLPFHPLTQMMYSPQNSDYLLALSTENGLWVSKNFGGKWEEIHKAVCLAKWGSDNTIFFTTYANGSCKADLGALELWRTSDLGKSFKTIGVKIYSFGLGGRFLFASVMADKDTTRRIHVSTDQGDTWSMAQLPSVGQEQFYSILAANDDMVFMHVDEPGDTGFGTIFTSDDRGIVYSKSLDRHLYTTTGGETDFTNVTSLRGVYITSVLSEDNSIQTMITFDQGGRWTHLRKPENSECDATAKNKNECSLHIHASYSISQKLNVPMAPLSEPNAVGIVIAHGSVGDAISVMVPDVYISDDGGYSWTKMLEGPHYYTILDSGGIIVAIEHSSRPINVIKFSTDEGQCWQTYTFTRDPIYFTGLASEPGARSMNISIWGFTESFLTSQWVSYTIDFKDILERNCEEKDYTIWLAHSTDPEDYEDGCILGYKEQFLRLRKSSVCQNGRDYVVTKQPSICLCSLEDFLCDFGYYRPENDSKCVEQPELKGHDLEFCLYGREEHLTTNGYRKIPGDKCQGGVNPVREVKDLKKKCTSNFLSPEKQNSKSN

As to `Cc1cccc(NC(=O)c2ccc(Br)cc2C(=O)O)n1` [Example 2, 5-Bromo-N-(6-methyl-pyridin-2-yl)-phthalamic acid], the IC50 amounted to 1200 nM and the affinity, expressed as Ki, was 1140 nM.

`Cc1ccc(C(=O)Nc2cccc(C)n2)c(C(=O)O)c1` [Example 3, 5-Methyl-N-(6-methyl-pyridin-2-yl)-phthalamic acid]: the half-inhibitory concentration (IC50) was 6400 nM and the affinity, expressed as Ki, was 6100 nM.

As for `Cc1cccc(NC(=O)c2ccc(Cl)cc2C(=O)O)n1` [Example 4, 5-Chloro-N-(6-methyl-pyridin-2-yl)-phthalamic acid], the IC50 stood at 1400 nM and the Ki is 1330 nM.

`Cc1cccc(NC(=O)c2cc(Cl)c(Cl)cc2C(=O)O)n1` [Example 5, 4,5-Dichloro-N-(6-methyl-pyridin-2-yl)-phthalamic acid]: the IC50 was determined as 830 nM and the Ki was 790 nM.

`N#Cc1c(NC(=O)c2ccc(Br)cc2C(=O)O)sc2c1CCCC2` [Example 6]: the IC50 was found to be 4000 nM.

Regarding `Cc1ccc(NC(=O)c2ccc(C(F)(F)F)cc2C(=O)O)nc1C` [Example 7, N-(5,6-Dimethyl-pyridin-2-yl)-5-trifluoromethyl-phthalamic acid], the IC50 came out at 170 nM and the Ki came to 162 nM.

Consider `Cc1ccnc(NC(=O)c2ccc(C(F)(F)F)cc2C(=O)O)c1` [Example 8, N-(4-methyl-pyridin-2-yl)-5-trifluoromethyl-phthalamic acid], for which the 50% inhibitory concentration (IC50) stood at 1000 nM and the inhibition constant Ki was 952 nM.

With `Cc1cc(NC(=O)c2ccc(C(F)(F)F)cc2C(=O)O)ccn1` [Example 9, N-(2-methyl-pyridin-4-yl)-5-trifluoromethyl-phthalamic acid], the IC50 was found to be 700 nM and affinity was put at a Ki of 667 nM.

As to `Cc1ccnc(NC(=O)c2cc(Cl)c(Cl)cc2C(=O)O)c1` [Example 10, 4,5-Dichloro-N-(4-methyl-pyridin-2-yl)-phthalamic acid], the concentration for half-maximal inhibition (IC50) stood at 2200 nM and the Ki turned out to be 2100 nM.

Regarding `Cc1ccc(NC(=O)c2cc(Cl)c(Cl)cc2C(=O)O)nc1C` [Example 11, 4,5-Dichloro-N-(5,6-Dimethyl-pyridin-2-yl)-phthalamic acid], the IC50 was 480 nM and affinity was put at a Ki of 457 nM.

For the compound `Cc1cc(NC(=O)c2cc(Cl)c(Cl)cc2C(=O)O)ccn1` [Example 12, 4,5-Dichloro-N-(2-methyl-pyridin-4-yl)-phthalamic acid], the IC50 stood at 1800 nM and the affinity, expressed as Ki, was 1710 nM.

Consider `Cc1nccc(NC(=O)c2cc(Cl)c(Cl)cc2C(=O)O)n1` [Example 13, 4,5-Dichloro-N-(2-methyl-pyrimidin-4-yl)-phthalamic acid], for which the IC50 is 480 nM and affinity was put at a Ki of 457 nM.

For `Cc1cccc(NC(=O)c2ccc(Cl)c(F)c2C(=O)O)n1` [Example 14, 5-Chloro-6-fluoro-N-(6-methyl-pyridin-2-yl)-phthalamic acid], the IC50 stood at 4200 nM and the Ki amounted to 4000 nM.

`Cc1cccc(NC(=O)c2cc(C)c(C)cc2C(=O)O)n1` [Example 15, 4,5-Dimethyl-N-(6-methyl-pyridin-2-yl)-phthalamic acid]: the IC50 turned out to be 3400 nM and affinity was put at a Ki of 3240 nM.

For `O=C(O)c1cc(C(F)(F)F)ccc1C(=O)Nc1ncc(C(F)(F)F)cc1Cl` [Example 16, 2-((3-chloro-5-(trifluoromethyl)pyridin-2-yl)carbamoyl)-5-(trifluoromethyl)benzoic acid], the half-inhibitory concentration (IC50) came to 360 nM and affinity was put at a Ki of 343 nM.

As to `Cc1ccnc(NC(=O)c2ccc(C(F)(F)F)cc2C(=O)O)n1` [Example 17, 2-((4-methylpyrimidin-2-yl)carbamoyl)-5-(trifluoromethyl)benzoic acid], the IC50 amounted to 360 nM and the affinity corresponds to a Ki of 343 nM.

With `Cc1ncc(NC(=O)c2ccc(C(F)(F)F)cc2C(=O)O)nc1C` [Example 18, 2-((5,6-dimethylpyrazin-2-yl)carbamoyl)-5-(trifluoromethyl)benzoic acid], the IC50 is 240 nM and the inhibitory constant (Ki) worked out at 229 nM.

`Cc1ccc(NC(=O)c2ccc(Br)cc2C(=O)O)nc1` [Example 19, 5-Bromo-N-(5-methyl-pyridin-2-yl)-phthalamic acid]: the IC50 came to 1700 nM and the Ki was 1620 nM.

Turning to `O=C(O)c1cc(Br)ccc1C(=O)Nc1ccc(Cl)cn1` [Example 20, 5-Bromo-N-(5-chloro-pyridin-2-yl)-phthalamic acid], the IC50 came to 990 nM and the inhibitory constant (Ki) was 943 nM.

Take `O=C(O)c1cc(Br)ccc1C(=O)Nc1ccccn1` [Example 21, 5-Bromo-N-pyridin-2-yl-phthalamic acid]: the half-maximal inhibitory concentration (IC50) amounted to 3600 nM and affinity was put at a Ki of 3430 nM.

For the compound `O=C(O)c1cc(Br)ccc1C(=O)Nc1cccc(Cl)n1` [Example 22, 5-Bromo-N-(6-chloro-pyridin-2-yl)-phthalamic acid], the IC50 was 1600 nM and affinity was put at a Ki of 1520 nM.

Consider `Cc1ccc(NC(=O)c2ccc(Br)cc2C(=O)O)nc1C` [Example 23, 5-Bromo-N-(5,6-dimethyl-pyridin-2-yl)-phthalamic acid], for which the IC50 is 570 nM and the Ki turned out to be 543 nM.

With `Cc1ccnc(NC(=O)c2ccc(Br)cc2C(=O)O)c1` [Example 24, 5-Bromo-N-(4-methyl-pyridin-2-yl)-phthalamic acid], the 50% inhibitory concentration (IC50) came to 2400 nM and the Ki was found to be 2290 nM.

`Cc1cc(NC(=O)c2ccc(Br)cc2C(=O)O)ccn1` [Example 25, 5-Bromo-N-(2-methyl-pyridin-4-yl)-phthalamic acid]: the IC50 is 1800 nM and affinity was put at a Ki of 1710 nM.

For `O=C(O)c1cc(Br)ccc1C(=O)Nc1cccnc1` [Example 26], the IC50 came out at 5500 nM and the affinity, expressed as Ki, was 5240 nM.

For `Cc1csc(NC(=O)c2ccc(Br)cc2C(=O)O)n1` [Example 28, 5-Bromo-N-(4-methyl-thiazol-2-yl)-phthalamic acid], the IC50 is 3600 nM and the Ki turned out to be 3430 nM.

As for `O=C(O)c1cc(Br)ccc1C(=O)Nc1ccc2ccccc2n1` [Example 29, 5-Bromo-N-quinolin-2-yl-phthalamic acid], the IC50 is 1300 nM and the affinity, expressed as Ki, was 1240 nM.

As for `O=C(O)c1cc(Br)ccc1C(=O)Nc1ccc(Cl)c(Cl)n1` [Example 30, 5-Bromo-N-(5,6-dichloro-pyridin-2-yl)-phthalamic acid], the IC50 amounted to 2100 nM and the affinity, expressed as Ki, was 2000 nM.

Take `Cc1ccc(NC(=O)c2ccc(Br)cc2C(=O)O)nn1` [Example 32, 5-Bromo-N-(6-methyl-pyridazin-3-yl)-phthalamic acid]: the IC50 came to 3200 nM and the Ki is 3050 nM.

`Cc1cc(C)nc(NC(=O)c2ccc(Br)cc2C(=O)O)c1` [Example 33, 5-Bromo-N-(4,6-dimethyl-pyridin-2-yl)-phthalamic acid]: the concentration for half-maximal inhibition (IC50) worked out at 970 nM and the Ki stood at 924 nM.

For `Cc1nccc(NC(=O)c2ccc(Br)cc2C(=O)O)n1` [Example 34, 5-Bromo-N-(2-methyl-pyrimidin-4-yl)-phthalamic acid], the IC50 was found to be 490 nM and the Ki was found to be 467 nM.

On to `Cc1cc(NC(=O)c2ccc(Br)cc2C(=O)O)ncn1` [Example 35, 5-Bromo-N-(6-methyl-pyrimidin-4-yl)-phthalamic acid], for which the half-maximal inhibitory concentration (IC50) was determined as 2000 nM and the Ki was 1900 nM.
